Test [1] has as its system T47D (PI3Kα-H1047R) cell line. As to the kind of experiment: HTRF phospho-AKT(S473) cell assay in T47D cells. The test is classed as cell-based, human. As to conditions: Homo sapiens; HTRF phospho-AKT(S473), T47D (PI3Kα-H1047R) cells, 2 hours compound incubation. In a few lines:
(§1)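 HTRF read-out of phospho-AKT(S473) in lysates gave IC50 values after 2 h compound exposure at 37° C. Dose series was 12 points at 1:3, topping at 5 μM for T47D and 10 μM for SKBR3. Only SKBR3 received 70 ng/ml PDGF-BB during the last 15 minutes.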
For orientation: TR-FRET usually uses a lanthanide donor and a delayed reading to cut background.

The test system of test [2] is SKBR3 (PI3Kα-Wild Type) cell line. As to the kind of experiment: HTRF phospho-AKT(S473) cell assay in SKBR3 cells. As to conditions: Homo sapiens, SK-BR-3; HTRF phospho-AKT(S473), SKBR3 (PI3Kα-Wild Type) cells, 2 hours compound incubation, PDGF-BB stimulated. The test is classed as cell-based, human. In a few lines:
as §1

The structures appear in SMILES notation. A value given as a limit tells only on which side of the number the result lay.

In the case of `CC(=O)N1CCN(c2ccc(-c3nc4c([C@@H](C)Nc5ccc(Cl)nc5C(=O)NS(C)(=O)=O)cc(C)cc4c(=O)n3C)cc2F)CC1(C)C` [Compound 804, (R)-3-((1-(2-(4-(4-acetyl-3,3-dimethylpiperazin-1-yl)-3-fluorophenyl)-3,6-dimethyl-4-oxo-3,4-dihydroquinazolin-8-yl)ethyl)amino)-6-chloro-N-(methylsulfonyl) picolinamide], the IC50 in test [1] is less than 250 nM; in test [2], no less than 5 µM.
In the same order, the values of `C[C@@H](Nc1ccc(Cl)nc1C(=O)NS(C)(=O)=O)c1cc(F)cc2c(=O)n(C)c(-c3ccc4nn(C)cc4c3)nc12` [Compound 805, (R)-6-chloro-3-((1-(6-fluoro-3-methyl-2-(2-methyl-2H-indazol-5-yl)-4-oxo-3,4-dihydroquinazolin-8-yl)ethyl)amino)-N-(methylsulfonyl) picolinamide] are 250 to 500 nM and 1 to 5 µM.
In the same order, the values of `Cc1cc([C@@H](C)Nc2ccc(Cl)nc2C(=O)NS(C)(=O)=O)c2nc(-c3ccc(Nc4cnn(C)c4)c(F)c3)n(C)c(=O)c2c1` [Compound 806, (R)-6-chloro-3-((1-(2-(3-fluoro-4-((1-methyl-1H-pyrazol-4-yl)amino)phenyl)-3,6-dimethyl-4-oxo-3,4-dihydroquinazolin-8-yl)ethyl)amino)-N-(methylsulfonyl) picolinamide] are less than 250 nM and 1 to 5 µM.
For `Cc1cc([C@@H](C)Nc2ccc(Cl)nc2C(=O)NS(C)(=O)=O)c2nc(-c3ccn(-c4ccn(C)n4)c(=O)c3)n(C)c(=O)c2c1` [Compound 807, (R)-6-chloro-3-((1-(3,6-dimethyl-2-(1-(1-methyl-1H-pyrazol-3-yl)-2-oxo-1,2-dihydropyridin-4-yl)-4-oxo-3,4-dihydroquinazolin-8-yl)ethyl)amino)-N-(methylsulfonyl) picolinamide], in that order: 250 to 500 nM and no less than 5 µM.
In the case of `Cc1cc([C@@H](C)Nc2ccc(Cl)nc2C(=O)NS(C)(=O)=O)c2nc(-c3ccnc(O[C@@H]4CCNCC4(F)F)c3)n(C)c(=O)c2c1` [Compound 808, 6-chloro-3-(((R)-1-(2-(2-(((R)-3,3-difluoropiperidin-4-yl)oxy)pyridin-4-yl)-3,6-dimethyl-4-oxo-3,4-dihydroquinazolin-8-yl)ethyl)amino)-N-(methylsulfonyl) picolinamide], the IC50 in test [1] is 250 to 500 nM; in test [2], no less than 5 µM.
On to `Cc1cc([C@@H](C)Nc2ccc(Cl)nc2C(=O)NS(C)(=O)=O)c2nc(-c3ccnc(O[C@@H]4CCN(C)CC4(F)F)c3)n(C)c(=O)c2c1` [Compound 809, 6-chloro-3-(((R)-1-(2-(2-(((R)-3,3-difluoro-1-methylpiperidin-4-yl)oxy)pyridin-4-yl)-3,6-dimethyl-4-oxo-3,4-dihydroquinazolin-8-yl)ethyl)amino)-N-(methylsulfonyl) picolinamide], for which the IC50 in test [1] was 250 to 500 nM; in test [2], no less than 5 µM.
For `Cc1cnc(N2C[C@@H]3[C@H](C2)[C@H]3c2nc3c([C@@H](C)Nc4ccc(Cl)nc4C(=O)NS(C)(=O)=O)cc(C)cc3c(=O)n2C)nc1` [Compound 810, 6-chloro-3-(((R)-1-(3,6-dimethyl-2-((1R,5S,6r)-3-(5-methylpyrimidin-2-yl)-3-azabicyclo[3.1.0]hexan-6-yl)-4-oxo-3,4-dihydroquinazolin-8-yl)ethyl)amino)-N-(methylsulfonyl) picolinamide], in that order: 250 to 500 nM and no less than 5 µM.
In the case of `Cc1cc([C@@H](C)Nc2ccc(Cl)nc2C(=O)NS(C)(=O)=O)c2nc([C@H]3[C@@H]4CN(c5cnc(C)cn5)C[C@@H]43)n(C)c(=O)c2c1` [Compound 811, 6-chloro-3-(((R)-1-(3,6-dimethyl-2-((1R,5S,6r)-3-(5-methylpyrazin-2-yl)-3-azabicyclo[3.1.0]hexan-6-yl)-4-oxo-3,4-dihydroquinazolin-8-yl)ethyl)amino)-N-(methylsulfonyl) picolinamide], the IC50 is 250 to 500 nM in test [1] and no less than 5 µM in test [2].
In the same order, the values of `CCn1c(-c2ccc3nn(C)cc3c2)nc2c([C@@H](C)Nc3ccc(Cl)nc3C(=O)NS(C)(=O)=O)cc(C)cc2c1=O` [Compound 812, (R)-6-chloro-3-((1-(3-ethyl-6-methyl-2-(2-methyl-2H-indazol-5-yl)-4-oxo-3,4-dihydroquinazolin-8-yl)ethyl)amino)-N-(methylsulfonyl) picolinamide] are less than 250 nM and 1 to 5 µM.
For `Cc1cc([C@@H](C)Nc2ccc(Cl)nc2C(=O)NS(C)(=O)=O)c2nc(-c3ccccc3)n(C)c(=O)c2c1` [Compound 813, (R)-6-chloro-3-((1-(3,6-dimethyl-4-oxo-2-phenyl-3,4-dihydroquinazolin-8-yl)ethyl)amino)-N-(methylsulfonyl) picolinamide], in that order: 250 to 500 nM and no less than 5 µM.
With `Cc1cc([C@@H](C)Nc2ccc(Cl)nc2C(=O)NS(C)(=O)=O)c2nc(-c3cnc(N4CCOCC4)nc3)n(C)c(=O)c2c1` [Compound 814, (R)-6-chloro-3-((1-(3,6-dimethyl-2-(2-morpholinopyrimidin-5-yl)-4-oxo-3,4-dihydroquinazolin-8-yl)ethyl)amino)-N-(methylsulfonyl) picolinamide], the IC50 was less than 250 nM in test [1] and 1 to 5 µM in test [2].
For `Cc1cc([C@@H](C)Nc2ccc(Cl)nc2C(=O)NS(C)(=O)=O)c2nc(-c3ccc(OC4CCN(CC(F)F)CC4)nc3)n(C)c(=O)c2c1` [Compound 815, (R)-6-chloro-3-((1-(2-(6-((1-(2,2-difluoroethyl)piperidin-4-yl)oxy)pyridin-3-yl)-3,6-dimethyl-4-oxo-3,4-dihydroquinazolin-8-yl)ethyl)amino)-N-(methylsulfonyl) picolinamide], in that order: 250 to 500 nM and no less than 5 µM.
In the same order, the values of `Cc1cc([C@@H](C)Nc2ccc(Cl)nc2C(=O)NS(C)(=O)=O)c2nc(-c3ccc(Oc4cnn(C)c4)nc3)n(C)c(=O)c2c1` [Compound 816, (R)-6-chloro-3-((1-(3,6-dimethyl-2-(6-((1-methyl-1H-pyrazol-4-yl)oxy)pyridin-3-yl)-4-oxo-3,4-dihydroquinazolin-8-yl)ethyl)amino)-N-(methylsulfonyl) picolinamide] are less than 250 nM and 1 to 5 µM.
With `[2H]C([2H])([2H])n1cc2cc(-c3nc4c([C@@H](C)Nc5ccc(Cl)nc5C(=O)NS(C)(=O)=O)cc(C)cc4c(=O)n3C)ccc2n1` [Compound 817, (R)-6-chloro-3-((1-(3,6-dimethyl-2-(2-(methyl-d3)-2H-indazol-5-yl)-4-oxo-3,4-dihydroquinazolin-8-yl)ethyl)amino)-N-(methylsulfonyl) picolinamide], the half-inhibitory concentration (IC50) in test [1] was less than 250 nM; in test [2], 1 to 5 µM.
In the same order, the values of `[2H]C([2H])([2H])n1ncc2cc(-c3nc4c([C@@H](C)Nc5ccc(Cl)nc5C(=O)NS(C)(=O)=O)cc(C)cc4c(=O)n3C)ccc21` [Compound 818, (R)-6-chloro-3-((1-(3,6-dimethyl-2-(1-(methyl-d3)-1H-indazol-5-yl)-4-oxo-3,4-dihydroquinazolin-8-yl)ethyl)amino)-N-(methylsulfonyl) picolinamide] are less than 250 nM and 1 to 5 µM.
In the same order, the values of `Cc1cc([C@@H](C)Nc2ccc(Cl)nc2C(=O)NS(C)(=O)=O)c2nc(-c3ccc4nn(C5CC5)cc4c3)n(C)c(=O)c2c1` [Compound 819, (R)-6-chloro-3-((1-(2-(2-cyclopropyl-2H-indazol-5-yl)-3,6-dimethyl-4-oxo-3,4-dihydroquinazolin-8-yl)ethyl)amino)-N-(methylsulfonyl) picolinamide] are 250 to 500 nM and 1 to 5 µM.
`Cc1cc([C@@H](C)Nc2ccc(Cl)nc2C(=O)NS(C)(=O)=O)c2nc([C@H]3[C@@H]4CN(c5cnc(C)nc5)C[C@@H]43)n(C)c(=O)c2c1` [Compound 820, 6-chloro-3-(((R)-1-(3,6-dimethyl-2-((1R,5S,6r)-3-(2-methylpyrimidin-5-yl)-3-azabicyclo[3.1.0]hexan-6-yl)-4-oxo-3,4-dihydroquinazolin-8-yl)ethyl)amino)-N-(methylsulfonyl) picolinamide]: the half-maximal inhibitory concentration (IC50) was less than 250 nM in test [1] and 1 to 5 µM in test [2].
For `Cc1cc([C@@H](C)Nc2ccc(Cl)nc2C(=O)NS(C)(=O)=O)c2nc(-c3ccc4oc(C)nc4c3)n(C)c(=O)c2c1` [Compound 821, (R)-6-chloro-3-((1-(3,6-dimethyl-2-(2-methylbenzo[d]oxazol-5-yl)-4-oxo-3,4-dihydroquinazolin-8-yl)ethyl)amino)-N-(methylsulfonyl) picolinamide], in that order: 250 to 500 nM and no less than 5 µM.
Regarding `Cc1cc([C@@H](C)Nc2ccc(Cl)nc2C(=O)NS(C)(=O)=O)c2nc(-c3ccn4nc(C)nc4c3)n(C)c(=O)c2c1` [Compound 822, (R)-6-chloro-3-((1-(3,6-dimethyl-2-(2-methyl-[1,2,4]triazolo[1,5-a]pyridin-7-yl)-4-oxo-3,4-dihydroquinazolin-8-yl)ethyl)amino)-N-(methylsulfonyl) picolinamide], the IC50 in test [1] was 250 to 500 nM; in test [2] it was no less than 5 µM.
For `Cc1cc([C@@H](C)Nc2ccc(Cl)nc2C(=O)NS(C)(=O)=O)c2nc(-c3ccc4nc(C)nn4c3)n(C)c(=O)c2c1` [Compound 823, (R)-6-chloro-3-((1-(3,6-dimethyl-2-(2-methyl-[1,2,4]triazolo [1,5-a]pyridin-6-yl)-4-oxo-3,4-dihydroquinazolin-8-yl)ethyl)amino)-N-(methylsulfonyl) picolinamide], in that order: 500 to 1000 nM and no less than 5 µM.

Usually IC50 stands for the point on the concentration scale where inhibition reaches its midpoint. Low readings indicate inhibition by little substance, high ones a need for much substance.

Source of the values: US12281122B1, “PI3K inhibitors” (Cogent Biosciences, Inc., priority 2023, dated 2025).
